This assay concerns the target ACSS2 (Homo sapiens, UniProt Q9NR19). In words: biochemical.
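Note: Pyrophosphatase-coupled ACSS2 enzyme assay, 10 nM protein incubated 90 min at 37 °C with ATP, CoA and acetate, released phosphate read by Biomol Green absorbance at 620 nm.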

ACSS2, sequence (Q9NR19 whole entry): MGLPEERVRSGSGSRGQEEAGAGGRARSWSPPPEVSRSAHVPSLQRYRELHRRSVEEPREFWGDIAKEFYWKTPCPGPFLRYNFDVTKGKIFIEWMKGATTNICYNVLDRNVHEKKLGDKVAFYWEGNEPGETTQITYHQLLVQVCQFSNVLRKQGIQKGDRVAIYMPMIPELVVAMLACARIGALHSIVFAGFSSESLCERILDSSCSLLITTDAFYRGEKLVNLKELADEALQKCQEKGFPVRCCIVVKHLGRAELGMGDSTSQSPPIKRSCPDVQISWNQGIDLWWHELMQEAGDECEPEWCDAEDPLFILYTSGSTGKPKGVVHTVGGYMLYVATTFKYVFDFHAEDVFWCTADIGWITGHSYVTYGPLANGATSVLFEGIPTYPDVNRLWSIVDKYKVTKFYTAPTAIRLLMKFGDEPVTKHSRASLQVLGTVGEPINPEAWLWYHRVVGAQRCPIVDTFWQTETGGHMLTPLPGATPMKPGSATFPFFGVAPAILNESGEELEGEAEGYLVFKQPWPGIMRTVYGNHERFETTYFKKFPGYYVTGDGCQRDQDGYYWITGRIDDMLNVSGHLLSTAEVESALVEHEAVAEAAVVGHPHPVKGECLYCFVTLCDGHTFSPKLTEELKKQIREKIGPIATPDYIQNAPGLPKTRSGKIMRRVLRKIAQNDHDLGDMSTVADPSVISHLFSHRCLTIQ
Procedure: The assay is based on a coupling reaction with Pyrophosphatase: ACSS2 is converting ATP+CoA+Acetate=>AMP+pyrophosphate+Acetyl-CoA (Ac-CoA). Pyrophosphatase converts pyrophosphate, a product of the ACSS2 reaction, to phosphate which can be detected by measuring the absorbance at 620 nm after incubation with the Biomol green reagent (Enzo life Science, BML-AK111).
At the end of the reaction, Biomol Green was added for 30 minutes at RT and the activity was measured by reading the absorbance at 620 nm.

Regarding `CCC(F)(F)c1cccc(NC(=O)C2C(=O)N(c3ccc4ccn(C(=O)c5ccc(O)cc5)c4c3)N=C2C)c1` (stereo not drawn) [compound 482, N-(3-(1,1-difluoropropyl)phenyl)-1-(1-(4-hydroxybenzoyl)-1H-indol-6-yl)-3-methyl-5-oxo-4,5-dihydro-1H-pyrazole-4-carboxamide], the IC50 is 0.01 to 6 nM.
The same measure for `CCCC(=O)n1ccc2ccc(N3N=C(C)C(C(=O)Nc4cccc(C(F)(F)CC)c4)C3=O)cc21` (stereo not drawn) [compound 478, 1-(1-butanoylindol-6-yl)-N-[3-(1,1-difluoropropyl)phenyl]-3-methyl-5-oxo-4H-pyrazole-4-carboxamide]: 0.01 to 6 nM; for `CCC(F)(F)c1cccc(NC(=O)C2C(=O)N(c3ccc(OC)c(-c4ccc(C)cn4)c3)N=C2C)c1` (stereo not drawn) [compound 534, N-(3-(1,1-difluoropropyl)phenyl)-1-(4-methoxy-3-(5-methylpyridin-2-yl)phenyl)-3-methyl-5-oxo-4,5-dihydro-1 H-pyrazole-4-carboxamide]: 0.01 to 6 nM.
Compound `CCC(F)(F)c1cccc(NC(=O)C2C(=O)N(c3ccc4ccn(C)c4c3)N=C2C)c1` (stereo not drawn) [compound 462, N-[3-(1,1-difluoropropyl)phenyl]-3-methyl-1-(1-methylindol-6-yl)-5-oxo-4H-pyrazole-4-carboxamide] yielded an IC50 of 0.01 to 6 nM.
On to `CCC(F)(F)c1cccc(NC(=O)C2C(=O)N(c3ccc(OC)c(-c4cc(C)ccn4)c3)N=C2C)c1` (stereo not drawn) [compound 537, N-(3-(1,1-difluoropropyl)phenyl)-1-(4-methoxy-3-(4-methylpyridin-2-yl)phenyl)-3-methyl-5-oxo-4,5-dihydro-1H-pyrazole-4-carboxamide], for which the IC50 fell in the range of 0.01 to 6 nM.
The same measure for `CCc1cccc(NC(=O)C2C(=O)N(c3ccc([N+](=O)[O-])cc3)N=C2C)c1` (stereo not drawn) [compound 157]: 1000 to 100000 nM; for `CC1=NN(c2ccc(OC(F)F)cc2)C(=O)C1C(=O)Nc1cccc(C(F)(F)C2CC2)c1` (stereo not drawn) [compound 481, N-(3-(cyclopropyldifluoromethyl)phenyl)-1-(4-(difluoromethoxy)phenyl)-3-methyl-5-oxo-4,5-dihydro-1H-pyrazole-4-carboxamide]: 0.01 to 6 nM.
The same measure for `CCC(F)(F)c1cccc(NC(=O)C2C(=O)N(c3ccc4nc[nH]c4c3)N=C2C)c1` (stereo not drawn) [compound 500, 1-(1H-benzo[d]imidazol-6-yl)-N-(3-(1,1-difluoropropyl)phenyl)-3-methyl-5-oxo-4,5-dihydro-1H-pyrazole-4-carboxamide]: 0.01 to 6 nM.
Regarding `CON(C)C(=O)C(F)(F)c1cccc(NC(=O)C2C(=O)N(c3ccc(OC(F)F)c(-c4ccccn4)c3)N=C2C)c1` (stereo not drawn) [compound 471, N-(3-(1,1-difluoro-2-(methoxy(methyl)amino)-2-oxoethyl)phenyl)-1-(4-(difluoromethoxy)-3-(pyridin-2-yl)phenyl)-3-methyl-5-oxo-4,5-dihydro-1H-pyrazole-4-carboxamide], the IC50 is 100 to 1000 nM.
For `CC1=NN(c2ccc(OC(F)F)cn2)C(=O)C1C(=O)Nc1cccc(C(F)(F)C2CC2)c1` (stereo not drawn) [compound 464, N-(3-(cyclopropyldifluoromethyl)phenyl)-1-(5-(difluoromethoxy)pyridin-2-yl)-3-methyl-5-oxo-4,5-dihydro-1H-pyrazole-4-carboxamide] the value was 0.01 to 6 nM; for `CC1=NN(c2cc(-c3cccnc3)cc(-c3ccc4cc[nH]c4c3)c2)C(=O)C1C(=O)Nc1cccc(C(C)(F)F)c1` (stereo not drawn) [compound 473], 6 to 100 nM; for `CC1=NN(c2ccc(OC(F)F)cc2)C(=O)C1C(=O)Nc1cncc(C#N)c1` (stereo not drawn) [compound 503, N-(5-cyanopyridin-3-yl)-1-(4-(difluoromethoxy)phenyl)-3-methyl-5-oxo-4,5-dihydro-1H-pyrazole-4-carboxamide], 100 to 1000 nM.
The same measure for `CCC(F)(F)c1cccc(NC(=O)C2C(=O)N(c3ccc4ccnnc4c3)N=C2C)c1` (stereo not drawn) [compound 524, 1-(cinnolin-7-yl)-N-(3-(1,1-difluoropropyl)phenyl)-3-methyl-5-oxo-4,5-dihydro-1H-pyrazole-4-carboxamide]: 6 to 100 nM; for `CCC(F)(F)c1cccc(NC(=O)C2C(=O)N(c3ccc4ccn(C(=O)c5cccc(O)c5)c4c3)N=C2C)c1` (stereo not drawn) [compound 493, N-(3-(1,1-difluoropropyl)phenyl)-1-(1-(3-hydroxybenzoyl)-1H-indol-6-yl)-3-methyl-5-oxo-4,5-dihydro-1H-pyrazole-4-carboxamide]: 0.01 to 6 nM; for `CCC(F)(F)c1cccc(NC(=O)C2C(=O)N(c3ccc4ccn(S(=O)(=O)c5ccccc5)c4c3)N=C2C)c1` (stereo not drawn) [compound 476, N-(3-(1,1-difluoropropyl)phenyl)-3-methyl-5-oxo-1-(1-(phenylsulfonyl)-1H-indol-6-yl)-4,5-dihydro-1H-pyrazole-4-carboxamide]: 0.01 to 6 nM.
For `COc1cccc(Cc2cc(-c3cccnc3)cc(N3N=C(C)C(C(=O)Nc4cccc(C(C)(F)F)c4)C3=O)c2)c1` (stereo not drawn) [compound 461] the value was 6 to 100 nM; for `CCC(F)(F)c1cccc(NC(=O)C2C(=O)N(c3ccc4nccnc4c3)N=C2C)c1` (stereo not drawn) [compound 488, N-(3-(1,1-difluoropropyl)phenyl)-3-methyl-5-oxo-1-(quinoxalin-6-yl)-4,5-dihydro-1H-pyrazole-4-carboxamide], 0.01 to 6 nM.
Compound `CC1=NN(c2ccc(OC(F)F)cc2)C(=O)C1C(=O)Nc1cccc(C(F)=C(C)C)c1` (stereo not drawn) [compound 496, 1-[4-(difluoromethoxy)phenyl]-N-[3-(1-fluoro-2-methyl-prop-1-enyl)phenyl]-3-methyl-5-oxo-4H-pyrazole-4-carboxamide] had an IC50 of 6 to 100 nM.
For `CCC(F)(F)c1cccc(NC(=O)C2C(=O)N(c3ccc(C#N)cc3)N=C2C)c1` (stereo not drawn) [compound 501, 1-(4-cyanophenyl)-N-(3-(1,1-difluoropropyl)phenyl)-3-methyl-5-oxo-4,5-dihydro-1H-pyrazole-4-carboxamide] the value was 0.01 to 6 nM; for `CCC(F)(F)c1cccc(NC(=O)C2C(=O)N(c3ccc(OC)cc3)N=C2C(C)=O)c1` (stereo not drawn) [compound 529, 3-acetyl-N-(3-(1,1-difluoropropyl)phenyl)-1-(4-methoxyphenyl)-5-oxo-4,5-dihydro-1H-pyrazole-4-carboxamide], 100 to 1000 nM; for `COc1ccccc1Cc1cc(-c2ccccc2)cc(N2N=C(C)C(C(=O)Nc3cccc(C(C)(F)F)c3)C2=O)c1` (stereo not drawn) [compound 467], 6 to 100 nM.
For `CCC(F)(F)c1cccc(NC(=O)C2C(=O)N(c3ccc4ccn(C(=O)c5ccccc5O)c4c3)N=C2C)c1` (stereo not drawn) [compound 509, N-(3-(1,1-difluoropropyl)phenyl)-1-(1-(2-hydroxybenzoyl)-1H-indol-6-yl)-3-methyl-5-oxo-4,5-dihydro-1H-pyrazole-4-carboxamid] the value was 0.01 to 6 nM; for `CCC(F)(F)c1cccc(NC(=O)C2C(=O)N(c3ccc4ccsc4c3)N=C2C)c1` (stereo not drawn) [compound 485, 1-(benzo[b]thiophen-6-yl)-N-(3-(1,1-difluoropropyl)phenyl)-3-methyl-5-oxo-4,5-dihydro-1H-pyrazole-4-carboxamide], 0.01 to 6 nM; for `CCC(F)(F)c1cccc(NC(=O)C2C(=O)N(c3ccc(OC)nn3)N=C2C)c1` (stereo not drawn) [compound 510, N-(3-(1,1-difluoropropyl)phenyl)-1-(6-methoxypyridazin-3-yl)-3-methyl-5-oxo-4,5-dihydro-1H-pyrazole-4-carboxamide], 0.01 to 6 nM.
The same measure for `CCC(F)(F)c1cccc(NC(=O)C2C(=O)N(c3ccc4cnn(S(=O)(=O)c5ccc(C)cc5)c4c3)N=C2C)c1` (stereo not drawn) [compound 487, N-[3-(1,1-difluoropropyl)phenyl]-3-methyl-5-oxo-1-[1-(p-tolylsulfonyl)indazol-6-yl]-4H-pyrazole-4-carboxamide]: 6 to 100 nM.
As to `CCC(F)(F)c1cccc(NC(=O)C2C(=O)N(c3ccc(S(C)(=O)=O)cc3)N=C2C)c1` (stereo not drawn) [compound 508, N-(3-(1,1-difluoropropyl)phenyl)-3-methyl-1-(4-(methylsulfonyl)phenyl)-5-oxo-4,5-dihydro-1H-pyrazole-4-carboxamide], the IC50 fell in the range of 0.01 to 6 nM.
For `CCC(F)(F)c1cccc(NC(=O)C2C(=O)N(c3ccc4cc(C)n(C)c4c3)N=C2C)c1` (stereo not drawn) [compound 502, N-[3-(1,1-difluoropropyl)phenyl]-1-(1,2-dimethylindol-6-yl)-3-methyl-5-oxo-4H-pyrazole-4-carboxamide] the value was 0.01 to 6 nM; for `CCC(F)(F)c1cc(NC(=O)C2C(=O)N(c3ccc(OC(F)F)cc3)N=C2C)ccn1` (stereo not drawn) [compound 506, 1-(4-(difluoromethoxy)phenyl)-N-(2-(1,1-difluoropropyl)pyridin-4-yl)-3-methyl-5-oxo-4,5-dihydro-1H-pyrazole-4-carboxamide], 6 to 100 nM; for `CCC(F)(F)c1cccc(NC(=O)C2C(=O)N(c3ccc4ccn(C(=O)c5ccc(C)cc5)c4c3)N=C2C)c1` (stereo not drawn) [compound 480, N-[3-(1,1-difluoropropyl)phenyl]-3-methyl-1-[1-(4-methylbenzoyl)indol-6-yl]-5-oxo-4H-pyrazole-4-carboxamide], 6 to 100 nM.
The same measure for `CC1=NN(c2ccc(OC(F)F)cc2)C(=O)C1C(=O)Nc1cccc(C(F)(F)C2CCCC2)c1` (stereo not drawn) [compound 470, N-(3-(cyclopentyldifluoromethyl)phenyl)-1-(4-(difluoromethoxy)phenyl)-3-methyl-5-oxo-4,5-dihydro-1H-pyrazole-4-carboxamide]: 100 to 1000 nM; for `CCC(F)(F)c1cccc(NC(=O)C2C(=O)N(c3cnc(Cl)cn3)N=C2C)c1` (stereo not drawn) [compound 489, 1-(5-chloropyrazin-2-yl)-N-(3-(1,1-difluoropropyl)phenyl)-3-methyl-5-oxo-4,5-dihydro-1H-pyrazole-4-carboxamide]: 0.01 to 6 nM.
As for `CCC(F)(F)c1cccc(NC(=O)C2C(=O)N(c3ccc(OC(F)F)cc3)N=C2C)n1` (stereo not drawn) [compound 486, 1-(4-(difluoromethoxy)phenyl)-N-(6-(1,1-difluoropropyl)pyridin-2-yl)-3-methyl-5-oxo-4,5-dihydro-1H-pyrazole-4-carboxamide], the IC50 fell in the range of 0.01 to 6 nM.
For `CCC(F)(F)c1cccc(NC(=O)C2C(=O)N(c3cnc(OC)cn3)N=C2C)c1` (stereo not drawn) [compound 512, N-(3-(1,1-difluoropropyl)phenyl)-1-(5-methoxypyrazin-2-yl)-3-methyl-5-oxo-4,5-dihydro-1H-pyrazole-4-carboxamide] the value was 100 to 1000 nM.

Source of the values: patent US20250186433A1, “ACSS2 INHIBITORS AND METHODS OF USE THEREOF” (EpiVario, Inc., priority 2017, published 2025).
